Results reported in patent publication US20210204539A1, “Method for Suppressing Freezing Damage and Composition for Preventing Freezing Damage” (Kyoto University, priority 2018, published 2021).

Assays:
[1] = molecular target: S1PR2 (Homo sapiens, UniProt O95136); conditions: reported; cited from earlier work
[2] = system: cells preserved at low temperature; assay: Cold damage suppression at varied timings of contact with the compound (Example 3); type: cell-based
Method: Cells were cultured at 37° C. so as to be at a density of 80 to 90%, and thereafter, the medium was replaced with a medium at 4° C. Then, the culturing at 4° C. in a low temperature incubator was performed. […] The cell viability one hour after the rewarming using a medium at 37° C. was determined by detecting enzyme activity with use of alamarBlue™.

[3] = system: cell line HepG2 derived from a human liver cancer; assay: Cold damage suppression, HepG2 cultured at 4° C. for 24 hours, viability after rewarming by alamarBlue (Examples 1, 5, 6); type: cell-based; conditions: HepG2, 4° C. 24 hours, compound 0 M to 50 μM, viability one hour after rewarming at 37° C.
Method: Then, the culturing at 4° C. in a low temperature incubator was performed for 24 hours. After the culturing at low temperature for 24 hours, rewarming was carried out using a medium at 37° C., and the viability of cells one hour after the rewarming was determined by detecting enzyme activity using alamarBlue™. The compound concentration was varied from 0 M (Vehicle) to 50 μM, so that the concentration dependency of the compound was observed.
Using the compounds 1 and 3 to 7 synthesized by the above-described scheme, the cell line HepG2 derived from a human liver cancer was cultured under the presence of the respective compounds at low temperature, and cold damage suppression effects were assessed.
HepG2 cells were cultured at 37° C. so as to be at a density of 80 to 90%, and thereafter, the medium was replaced with a medium (DMEM) at 4° C. to which any one of the compounds 1 and 3 to 7 had been added preliminarily. Then, the culturing at 4° C. in a low temperature incubator was performed for 24 hours. After the culturing at low temperature for 24 hours, rewarming was carried out by a medium at 37° C., and the viability of cells one hour […] determined by detecting enzyme activity using alamarBlue™. The compound concentration was varied from 0 M (Vehicle) to 50 μM, so that the concentration dependency of the compound was observed. […]

[4] = molecular target: S1PR1 (Homo sapiens, UniProt P21453); conditions: reported; cited from earlier work
Chain of S1PR1 (P21453 whole entry, species assumed): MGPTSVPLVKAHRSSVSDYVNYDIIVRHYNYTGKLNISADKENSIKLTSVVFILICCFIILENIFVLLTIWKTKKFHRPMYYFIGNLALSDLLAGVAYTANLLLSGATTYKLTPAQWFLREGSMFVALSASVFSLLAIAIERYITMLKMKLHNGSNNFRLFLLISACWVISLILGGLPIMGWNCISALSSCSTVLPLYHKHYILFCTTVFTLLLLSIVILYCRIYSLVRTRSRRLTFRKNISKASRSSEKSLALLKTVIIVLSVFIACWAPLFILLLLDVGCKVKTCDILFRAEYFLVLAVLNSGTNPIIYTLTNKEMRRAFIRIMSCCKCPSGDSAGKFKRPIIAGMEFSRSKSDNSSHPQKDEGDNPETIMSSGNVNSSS

[5] = molecular target: T1, S1PR4 (Homo sapiens, UniProt O95977); conditions: reported; cited from earlier work
T1 sequence (O95977 1-384): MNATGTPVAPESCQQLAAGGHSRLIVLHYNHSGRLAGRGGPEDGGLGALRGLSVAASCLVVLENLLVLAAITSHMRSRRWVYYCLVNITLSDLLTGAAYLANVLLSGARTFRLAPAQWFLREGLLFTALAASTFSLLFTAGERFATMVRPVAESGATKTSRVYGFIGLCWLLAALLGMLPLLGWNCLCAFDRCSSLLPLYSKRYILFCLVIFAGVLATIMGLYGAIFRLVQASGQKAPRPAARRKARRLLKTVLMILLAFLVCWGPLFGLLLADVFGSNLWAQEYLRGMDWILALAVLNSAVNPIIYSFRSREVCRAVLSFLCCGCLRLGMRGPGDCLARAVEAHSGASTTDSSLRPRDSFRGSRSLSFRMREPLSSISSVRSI

[6] = system: cell line HepG2 derived from a human liver cancer; assay: Cold storage time versus viability, HepG2 (Example 2); type: cell-based; conditions: HepG2, 10 μM, 4° C., versus Vehicle
Method: (§1) Then, the culturing at 4° C. in a low temperature incubator was performed. The cell viability one hour after the rewarming using a medium at 37° C. was determined by detecting enzyme activity with use of alamarBlue™. The relationship between the cold storage time and the viability was observed.

[7] = system: S1PR; conditions: known; cited from earlier work
[8] = molecular target: S1PR5 (Homo sapiens, UniProt Q9H228); conditions: reported; cited from earlier work
Chain of S1PR5 (Q9H228 whole entry, species assumed): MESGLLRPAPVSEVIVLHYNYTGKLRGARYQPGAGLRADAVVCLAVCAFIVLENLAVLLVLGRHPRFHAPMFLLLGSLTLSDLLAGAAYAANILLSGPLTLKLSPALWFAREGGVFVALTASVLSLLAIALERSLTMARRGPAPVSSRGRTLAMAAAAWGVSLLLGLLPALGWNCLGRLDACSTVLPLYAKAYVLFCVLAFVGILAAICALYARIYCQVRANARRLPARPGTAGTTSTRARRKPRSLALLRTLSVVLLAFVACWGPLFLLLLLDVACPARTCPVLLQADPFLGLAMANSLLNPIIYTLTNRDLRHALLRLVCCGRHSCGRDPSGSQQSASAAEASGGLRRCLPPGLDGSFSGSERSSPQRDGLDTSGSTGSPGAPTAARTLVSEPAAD

[9] = system: the cells; assay: Toxicity to the cells when administered at a time other than the low-temperature preservation; type: cell-based; conditions: e.g. during a normal-temperature preservation
[10] = system: myocardium in the hearts of transplanted rats; assay: Rat heart 24-hour cold storage and ectopic transplantation, Masson's trichrome staining (Example 4); type: in vivo, LEW rats; conditions: UW solution with 10 μM, 24-hour cold storage at 4° C., one week after transplantation, versus Vehicle group
Method: To each of 7 to 8 week-old LEW rats as recipients, laparotomy under general anesthesia was performed to expose the abdominal aorta and the vena cava. Then, the heart in cold storage was taken out of the UW solution, and ectopic transplantation was carried out, by end-to-side anastomosis between the pulmonary artery and the aorta of the donor and the abdominal vena cava and the aorta of the recipient, respectively, followed by laparotomy closure. The heart was removed one week after the transplantation, and the viable area and fibrotic area of myocardium in the heart were compared by using Masson's trichrome staining (N=5 in each group).

[11] = system: Flp-In™ CHO cell line; assay: Cold storage time versus viability, Flp-In CHO (Example 2); type: cell-based
Method: as §1

[12] = system: human umbilical vascular endothelial cell line HUEhT-2; assay: Cold storage time versus viability, HUEhT-2 (Example 2); type: cell-based; conditions: HUEhT-2, 10 μM
Method: as §1

Chain of S1PR2 (O95136 whole entry, species assumed): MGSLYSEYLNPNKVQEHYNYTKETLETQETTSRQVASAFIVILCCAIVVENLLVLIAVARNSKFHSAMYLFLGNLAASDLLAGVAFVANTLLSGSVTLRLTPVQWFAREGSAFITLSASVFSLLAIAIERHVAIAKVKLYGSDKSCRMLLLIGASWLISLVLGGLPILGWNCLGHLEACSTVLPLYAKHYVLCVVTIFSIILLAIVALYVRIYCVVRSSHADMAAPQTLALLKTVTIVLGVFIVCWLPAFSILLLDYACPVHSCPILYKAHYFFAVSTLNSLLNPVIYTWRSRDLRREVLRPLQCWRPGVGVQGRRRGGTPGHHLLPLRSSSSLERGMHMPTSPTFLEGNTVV

Compound	inhibiting activity to S1PR2 [1]	cold damage (deterioration of viability) suppression ([2]; 10 μM added simultaneously with the start of the low-temperature preservation)	cold damage (deterioration of viability) suppression ([2]; 10 μM added to the medium before the start of the low-temperature preservation)	cold damage (deterioration of viability) suppression ([2]; 10 μM added when the temperature was turned to 37° C. after the low-temperature preservation (Rewarm treat))	amelioration of the deterioration of cell viability during the low-temperature preservation (cold damage suppression) [3]	inhibiting activity to S1PR1 [4]	inhibiting activity to S1PR4 [5]	amelioration of the deterioration of cell viability during the low-temperature preservation [6]	S1PR antagonist [7]	inhibiting activity to S1PR5 [8]	toxicity to the cells [9]	fibrotic area of myocardium [10]	viable area of myocardium [10]	amelioration of the deterioration of cell viability during the low-temperature preservation ([11]; 10 μM, 4° C., versus Vehicle)	viability at 10 µM ([11]; Cricetulus griseus, 360 h, low-temperature preservation period 15 days)	amelioration of the deterioration of cell viability during the low-temperature preservation ([12]; 4° C., versus Vehicle)	viability at 10 µM ([12]; Homo sapiens, Endothelial cell, 360 h, low-temperature preservation period 15 days)
CC(C)(C)C(=O)/C(=N/c1ccc(Cl)cc1)NNc1ccc(Cl)cc1 [Compound 1, N-(4-chlorophenyl)-N′-(4-chlorophenylamino)-3,3-dimethyl-2-oxobutanamidine]	has an inhibiting activity	could be suppressed	could be suppressed	not sufficiently suppressed	concentration-dependent amelioration	has an inhibiting activity	has an inhibiting activity	amelioration of the deterioration of cell viability	S1PR antagonists	has an inhibiting activity	did not exhibit toxicity	less fibrotic one	more viable myocardium	amelioration of the deterioration of cell viability	> 50%	amelioration of the deterioration of cell viability	> 50%
Cc1nn(C)c2nc(NNC(=O)Nc3cc(Cl)nc(Cl)c3)cc(C(C)C)c12 [Compound 2, N-(2,6-dichloro-4-pyridinyl)-2-[1,3-dimethyl-4-(1-methylethyl)-1H-pyrazolo[3,4-b]pyridin-6-yl]-hydrazinecarboxamide]	–	–	–	–	concentration-dependent amelioration	–	–	–	S1PR antagonists	–	did not exhibit toxicity	–	–	–	–	–	–
